System: soybean rust fungus (Phakopsora pachyrhizi)
Assay: Test Example 7: soybean rust control, foliar spray on soybean
Type: in vivo
Conditions: 200 ppm sprayed on soybean (KUROSENGOKU); inoculated after 2 days; assessed after 3 + 14 days

## CON=C(C)c1cccc(OCc2c(C)cccc2-n2nnn(C)c2=O)n1 [compound 44]
  area of lesion on the treated plant relative to that on an untreated plant: ≤ 30%
